Experiments:
RAW 264.7 macrophages = test: LPS-stimulated nitrite production in RAW 264.7 macrophages; type: cell-based; conditions: 24-48 h
Experimental: (§1) Primary astrocytes were cultured from neonatal R6/2 transgenic mouse pups (“Htt+”) which are the standard murine model for Huntington's disease (animals commercially obtained from Jackson Labs) or nontransgenic littermates. For RAW cell studies, RAW264.7 macrophages were obtained commercially from American Type Culture Collection. RAW 264.7 macrophages were grown in DMEM plus 10% FBS and 1% Pen/Strep. Cells were maintained in culture according to published methods. Cells were treated with +/−[…] bacterial lipopolysaccharide serotype 0127:B8 (Sigma Chemical)+/−various concentrations of (R)-LKE1 for 24-48 h. (R)-LKE1 was added 30 minutes prior to LPS challenge. Nitrite was measured in the cell culture medium using the Griess diazotization assay. Cells were lysed and Western blots performed for protein expression or in other experiments for ribonuclease protection assays.

NSC-34 cells [1] = test: NSC-34 viability after H2O2 challenge (tetrazolium reduction); type: cell-based, mouse; conditions: H2O2 challenge 24 h
Experimental: NSC-34 cells were challenged directly with H2O2 for 24 h and the viability was assessed by tetrazolium reduction assay.
Furthermore, the invention contemplates that cytoprotection might be achieved by providing metabolic precursors to LK, rather than direct addition of the compound. For example, the inventor has studied the effects of NSC-34 cells treated with ethyl pyruvate in the presence or absence of lanthionine for 6 h prior to challenge with H2O2 and has assayed the viability of these cells 24 h later (FIG. 10). As reported in previous studies, ethyl pyruvate alone was protective against peroxide-induced cell death (Desagher et al., 1997; Nakamichi et al., 2005) with complete protection at ethyl pyruvate concentrations >1 mM (approximately 2-fold higher than ambient cell culture medium pyruvate concentrations; data not shown).
(R)-LKE1 protects NSC-34 motoneuron x neuroblastoma hybrid cells from hydrogen peroxide toxicity (FIG. 4). Cells were treated with the indicated concentration of (R)-LKE1. Thirty minutes later cells were challenged with the indicated concentration of hydrogen peroxide. Cell viability was assayed 24 hours later by tetrazolium reduction using a commercially available kit (Promega).
NSC-34 motor neuron-like cells, derived through the fusion of a neuroblastoma cell line with embryonic mouse motor neurons (Cashman et al., 1992), were grown in Dulbeco's modified essential medium (DMEM) plus 5% fetal bovine serum (FBS) and 1% penicillin plus 1% streptomycin (Pen/Strep). Recombinant TNFα and interferon gamma (IFNγ) were purchased from BD Biosciences (Pasadena Calif. USA). Lanthionine was purchased from Sequoia Research Products Ltd. (Pangbourne, UK). All other reagents were of the highest available commercial purity.
NSC-34 cells were exposed to 1 mM H2O2 with or without ethyl-pyruvate and/or lantionine (LK).

NSC-34 cells [2] = test: NSC-34 viability in cytokine-conditioned EOC-20 microglial medium (tetrazolium reduction); type: cell-based, mouse
Experimental: In the second cytotoxicity paradigm, the inventor has also shown that the compounds and methods of this invention diminish the toxicity of microglia-conditioned medium toward NSC-34 cells. NSC-34 cells were treated with conditioned medium taken from EOC-20 cells that had been stimulated for 24 h with 50 U/mL IFNγ plus […] TNFα. This cytokine-conditioned EOC-20 medium is toxic to NSC-34 cells, whereas the same cytokine mixture added directly to NSC-34 cells is not toxic (data not shown). Medium from unstimulated EOC-20 cells is likewise nontoxic (data not shown). The toxic factor in the cytokine-stimulated EOC-20 cell conditioned medium was not identified. […] The concentration of (R)-LKE1 necessary to achieve half-maximal protective efficacy in this case was less than 1 μM (FIG. 3).
(R)-LKE1 protects NSC-34 motoneuron hybridoma cells from microglial-derived neurotoxic products (FIG. 3). EOC-20 microglia were stimulated with 50 U/mL IFNγ plus 20ng/mL TNFα for 24 hours, and cytokine-conditioned medium (CM) was collected. NSC-34 cells (2 days post-passage) were treated with the indicated concentration of (R)-LKE1 for 2.5 hours after which 50% of the medium was replaced with CM. […] After 48 hours, viability of NSC-34 cultures was assessed by tetrazolium reduction assay using a commercially available kit (Promega Aqueous OneStep®).

C6 glioma cells = test: stimulated nitrite production in C6 glioma cells; type: cell-based
EOC-20 microglial cells [3] = test: LPS-stimulated nitrite production in EOC-20 microglia; type: cell-based, mouse
Experimental: In some embodiments, the compounds of the invention function is a cell-type specific, stimulus-specific, or condition-specific fashion. […] In contrast, when EOC-20 cells or RAW264.7 macrophages were stimulated with bacterial lipopolysaccharide (LPS; E. coli serotype 0127:B8) for 24-48 h and nitrite and cell viability were assessed. LKE inhibited cytokine-induced nitrite accumulation with a similar efficacy in both cell types (see FIGS. 9A & 9B).
Mouse EOC-20 microglia (American Tissue Type Collection, Gaithersville Md. USA) (Hensley et al., 2003; Walker et al., 1995) were grown in DMEM containing 20% L929 fibroblast-supplemented medium. Nitrite production by cytokine stimulated microglia was measured in cell culture medium using the Griess diazotization reaction as previously reported (Hensley et al., 2003; West et al., 2004).

NSC-34 cells [4] = test: NSC-34 viability after glutamate and/or Ca2+ exposure; type: cell-based, mouse; conditions: 1 mM L-glutamate, 1 mM CaCl2 or both, four days
Experimental: NSC-34 motor neuron x neuroblastoma cells were treated with 1 mM L-glutamate, 1 mM CaCl2, or both for four days. (R)-LKE1 was added at t=0 and at t=48 hours, at the indicated concentrations. At the end of four days (t=96 hours) cell viability was assayed by measuring tetrazolium reduction rates using a commercially available kit (Promega).

EOC-20 microglial cells [5] = test: PGE2 production in TNFα+IFNγ-stimulated EOC-20 microglial cells; type: cell-based, mouse; conditions: stimulated by TNFα+IFNγ
Htt+ astroglia = test: LPS-stimulated NO2- production in Htt+ astroglia; type: cell-based, mouse; conditions: LPS serotype 0127:B8
Experimental: as §1

CCOC(=O)[C@@H]1CSCC(C(=O)O)=N1 [(R)-LKE1]
inhibition of LPS-stimulated nitric oxide production (RAW 264.7 macrophages): inhibited LPS stimulated nitric oxide production
protection from H2O2-induced cell death (NSC-34 cells [1]): protected NSC-34 cells from direct oxidative stress-induced cell death in a dose dependent fashion
EC50 (NSC-34 cells [2]; Mus musculus, NSC-34, cytokine-conditioned EOC-20 medium, read-out: concentration necessary to achieve half-maximal protective efficacy): < 1000 nM
mitigation of conditioned-medium toxicity (NSC-34 cells [2]; co-treatment with conditioned medium): largely, but not completely mitigated
suppression of nitrite production (C6 glioma cells; stimulated by TNFα+IFNγ): does not suppress nitrite production
suppression of nitrite production (C6 glioma cells; stimulated by TNFα+LPS): not to suppress nitrite production
cytotoxicity (cell viability) (EOC-20 microglial cells [3]; EOC-20 cells or RAW264.7 macrophages, LPS 24-48 h): No cytotoxicity was observed
inhibition of LPS-stimulated nitric oxide production (EOC-20 microglial cells [3]; EOC-20 microglial cells, LPS): inhibited LPS stimulated nitric oxide production
viability of cells exposed to glutamate and/or Ca2+ (NSC-34 cells [4]): increases the viability
suppression of PGE2 production (EOC-20 microglial cells [5]): does not to suppress prostaglandin E2 (PGE2) production
NO2- produced in response to LPS (Htt+ astroglia): reduce the amount of NO2^− produced

Reference: US7683055B2, “Lanthionine-related compounds for the treatment of inflammatory diseases” (Oklahoma Medical Research Foundation, priority 2006, dated 2010)
